Columns and labels:
[1] = test system: C57BL/6 mice with autoimmune encephalomyelitis (EAE); experiment: Experimental autoimmune encephalomyelitis (EAE) model of multiple sclerosis, severity index; type: in vivo, mouse; conditions: 20 mg/kg intraperitoneally daily 12th to 17th day
Description: On day 0, myelin oligodendrocyte glycoproteins 35-55 (MOG 35-55, Peptron) (200 μg), heat-killed Mycobacterium tuberculosis (Difco, Cat No. 231141) (500 μg), and adjuvant (Complete Freund's adjuvant, Sigma Aldrich, Cat No. F5506) were mixed together and then submerged for 7 minutes. After subcutaneous injection of 100 μl of the submerged peptide into both flanks of each of C57BL/6 mice (7 weeks old, female, 17±2 g), 100 μl of pertussis toxin (Sigma Aldrich. Cat No. P2980) (200 ng) was administered intravenously to the tail.
On the 2nd day of the experiment, the same amount of pertussis toxin was administered intravenously. The mice were checked for immersion leaking from the injected site, and visually observed from the 7th day of the experiment in order to confirm the onset of multiple sclerosis.
The multiple sclerosis index was visually observed and recorded at an interval of 2 days from the 7th day of the experiment in the severity index system classified into 0-5 stages, and autoimmune encephalomyelitis symptoms were indexed according to the following items (see Table 4).

[2] = test system: IL-1β, IL-6, IL-17A, TNF-α, IL-10 and Foxp3 expression in colon lesions; experiment: mRNA expression of inflammatory and immunomodulatory factors in colon of DSS mice (real-time PCR); type: in vivo, mouse; conditions: 20 mg/kg oral, 15th day, compared to solvent control
Excerpt: On the 15th day of the experiment, the colon of the mouse was excised to prepare an mRNA sample. In order to extract mRNA, the colon tissue was ground with a homogenizer to acquire a homogeneous suspension. […] From the isolated RNA, cDNA was synthesized by reverse transcription followed by confirming the expression of inflammatory cytokines through real-time polymerase chain reaction (PCR) using iQ SYBR-Green Supermix (Bio-rad) in the CFX96 (Bio-rad) detection system. Relative values of the enzyme expression levels were compared by the ΔΔct method using GAPDH as a control enzyme. Herein, one (1) fold was set using the normal mouse colon as a control.
The real-time polymerase chain reaction was implemented under the conditions of cycles at an annealing temperature of 58′° C. and the following primer sequences were used.

[3] = scale 0-5, solvent control 3.33±0.17

O=C(Cc1c[nH]c2ccc(Cl)cc12)Nc1ccc(Cl)c(F)n1 [Compound 26, 2-(5-chloro-1H-indol-3-yl)-N-(5-chloro-6-fluoropyridin-2-yl)acetamide]
treatment effects on EAE severity index compared to solvent control from the 16th day, maintained after administration was stopped [1]: statistically significant treatment effects | severity index (EAE), 18th day, acute reaction period [1, 3]: 1.33±0.56 | severity index (EAE), 36th day, chronic reaction period [1, 3]: 1.33±0.22 | expression level of Foxp3 in the colon lesion [2]: significantly increased | expression level of IL-1β in colon lesions [2]: significantly reduced | expression level of IL-6 in colon lesions [2]: significantly reduced | expression level of IL-10 in the colon lesion [2]: significantly increased | expression level of IL-17A in colon lesions [2]: significantly reduced | expression level of TNF-α in colon lesions [2]: significantly reduced

— US20230020507A1, “COMPOUND AND USE THEREOF IN TREATING AUTOIMMUNE DISEASES” (PARENCHYMA BIOTECH INC., priority 2019, published 2023)
